Test results reported in patent US5264207A, “Products for cutaneous applications with cosmetic and/or therapeutic effects” (EXSYMOL S.A.M., priority 1989, dated 1993).

Tests used:
[1] = time of release/action of active substances after application to the skin; format: in vivo; details: for time of release on application to the skin: Example 4, product as it is or mixed with cosmetic cream, gel or lotion
Protocol: The microspheres are constituted by a copolymer of 2 moles of styrene with 2 moles of butadiene and 1 mole of 2-aminoethanol methacrylate. They are prepared in the known manner, in aqueous dispersion with Na dodecylsulfate as a surfactant and K persulfate as a catalyst. After polymerization, the microspheres are neutralized, purified by aqueous dialysis and passed over an ion-exchange resin.
0.09 g of pyrrolidone carboxylic acid, which binds to the methacrylate --NH2 group forming a covalent amide bond, is added to 100 ml of suspension of 4 g of these microspheres numbering […] (average size 96 nm). Another purification is then carried out and 6.1 g of dimethyl silanol hyaluronate, the same as in example 1, are added to the suspension and adsorbed.
The resulting suspension of 106.1 g thus contains 0.09 g of pyrrolidone carboxylic acid and 0.28 g of the Si contained in dimethyl silanol hyaluronate. Application to the skin of the product as it is, or mixed with a cosmetic cream, gel or lotion leads to release of the pyrrolidone compound in 2 to 5 hours and release of the hyaluronate compound in 10 to 17 hours. A synergetic effect of the two active substances is also observed for 2 to 5 hours, followed by a longer period of hyaluronate action only.
The microspheres prepared in the known manner, described at the beginning of example 4, consist of a copolymer of 4 moles of styrene with 1 mole of acrylic acid.
(A)-100 g of an aqueous suspension of 5 g of microspheres are reacted with 0.126 g of theophylline, which binds to the acryl groups.
(B)-The microspheres are then given functional groups using diamine hexamethylene, after which they are treated with a 40 g/kg elastin aqueous solution. 0.3 g of elastin polypeptides thus bind to the copolymer.
(C)-The product obtained is purified and made to adsorb Ruscus Aculeatus glucosides, from an aqueous extract of this plant (Ruscus 1=33).

[2] = Protocol: 100 g of an aqueous suspension of 5 g of nanospheres having a diameter of about 70 to 130 nm (average 100 nm) are prepared by the copolymerization of an emulsion of 4 moles of styrene and 1 mole of acrylic acid, according to the technique described in example 2. 0.126 g of theophylline, which binds to the acrylic acid groups of the copolymer by an electronic-type chemical interaction, is added to these 100 g.
A liquid product (a-b) composed of two sets of copolymer/active substance nanospheres is thus obtained:
The liquid (a-b) is submitted to tests on an experimental model, reproducing diffusion phenomena in the skin.
The proportions of each of the active substances which may have been in contact with the skin in 3 hours is thus determined.
Given below are the percentages of the initial amount of each of these active substances which, according to the tests mentioned hereinabove, may have been diffused into the skin from the liquid studied:
They thus contained no --COOH groups likely to react with the --NH groups of theophylline. […]
As above, the amount of active principal available to the skin in 3 hours was determined. […]
The proportion of theophylline which is available to the skin in 3 hours and in 5 hours is then determined from 100 g of an aqueous suspension of 5 g of nanosphere charged as described above. […]

[3] = adsorption (charging) of active substance onto copolymer microspheres/nanospheres; format: physicochemical; details: 60% styrene / 40% methyl methacrylate copolymer, average 95 nm; room temperature, 48 hours

Compound	time of release on application to the skin [1]	time of action after application ([1]; in vivo)	amount available to the skin, tempering ratio without : with nanospheres [2]	amount of active principal available to the skin in 3 hours [2]	microspheres are charged with dimethylsilanediol hyaluronate [3]
O=C1CC[C@@H](C(=O)O)N1 [pyrrolidone carboxylic acid]	2 to 5 h	–	–	–	–
Cn1c(=O)c2[nH]cnc2n(C)c1=O [theophylline]	–	2 to 8 h	2.5 times	20%	–
dimethylsilanediol hyaluronate	10 to 17 h	–	–	–	30%
